Laboratory results reported in ChEMBL document CHEMBL4680320, “Exploiting the antiproliferative potential of spiropyrazoline oxindoles in a human ovarian cancer cell line” (Bioorg Med Chem, 2021).
The source made the active and inactive calls. No cut-off for these calls is given here.

What was measured:
[1] = test system: Fibroblast; test: Cytotoxicity against human fibroblasts cells assessed as cell viability incubated for 48 hrs by MTS assay; type: cell-based
[2] = test system: A2780; test: Antiproliferative activity against human A2780 cells assessed as cell viability incubated for 48 hrs by MTS assay; type: functional, cell-based; settings: A2780, 48 h
[3] = test system: MDA-MB-453; test: Antiproliferative activity against human MDA-MB 453 cells assessed as reduction in cell viability incubated for 48 hrs by MTS assay; type: functional, cell-based; settings: MDA-MB-453, 48 h
[4] = test system: Calf thymus DNA; test: Binding affinity to calf thymus DNA after 24 hrs by UV-vis spectroscopy; settings: Bos taurus
[5] = test system: A2780; test: Induction of apoptosis in human A2780 cells assessed as late apoptotic cells at 8.5 uM measured after 48 hrs by Annexin-V/propidium iodide staining-based flow cytometric analysis (reference value: 6%); type: functional
[6] = test system: A2780; test: Induction of mitochondrial membrane potential loss in human A2780 cells at 8.5 uM after 48 hrs by JC-1 staining based flow cytometry; type: functional, cell-based
[7] = test system: A2780; test: Induction of apoptosis in human A2780 cells assessed as apoptotic cells at 8.5 uM measured after 48 hrs by Hoechst staining based fluorescence microscopic analysis relative to control; type: functional
[8] = test system: A2780; test: Induction of apoptosis in human A2780 cells assessed as PARP level at 8.5 uM after 48 hrs by Western blot analysis; type: functional, cell-based
[9] = test system: A2780; test: Induction of necrosis in human A2780 cells at 8.5 uM measured after 48 hrs by Annexin-V/propidium iodide staining-based flow cytometric analysis; type: functional, cell-based
[10] = test system: Cancer cell lines; test: Induction of apoptosis in human A2780 cells assessed as DNA damage after 48 hrs by fluorescence microscopic analysis; type: functional, cell-based
[11] = test system: A2780; test: Induction of autophagy in human A2780 cells assessed as autophagosome accumulation at 8.5 uM after 48 hrs by Hoechst staining based fluorescence microscopic analysis relative to control; type: functional, cell-based
[12] = test system: DNA; test: Induction of DNA damage in human A2780 cells assessed as DNA fragmentation at 8.5 uM after 48 hrs by agarose gel electrophoresis; type: cell-based
[13] = test system: A2780; test: Induction of apoptosis in human A2780 cells assessed as decreased […] expression at 8.5 uM after 48 hrs by Western blot analysis; type: functional, cell-based
[14] = test system: A2780; test: Effect on cell cycle distribution in human A2780 cells at 8.5 uM measured after 4 to 24 hrs by flow cytometry; type: functional, cell-based; settings: time 4-24 hrs
[15] = test system: DNA; test: Induction of DNA damage of Escherichia coli pUC18 plasmid DNA at 8.5 uM after 24 hrs by agarose gel electrophoresis method; type: nucleic-acid assay
[16] = test system: A2780; test: Induction of apoptosis in human A2780 cells assessed as increased BAX expression at 8.5 uM after 48 hrs by Western blot analysis; type: functional, cell-based
[17] = test system: A2780; test: Induction of intracellular reactive oxygen species production in human A2780 cells at 8.5 uM measured after 48 hrs by DCFH-DA probe based fluorescence microscopic analysis; type: functional, cell-based
[18] = test system: Calf thymus DNA; test: Binding affinity to calf thymus DNA at 100 uM by circular dichroism spectroscopy; settings: Bos taurus

| Structure (SMILES) | IC50 [2] [µM] | IC50 [3] [µM] | IC50 [1] [µM] | further results |
| --- | --- | --- | --- | --- |
| O=C1Nc2ccc(Br)cc2[C@]12[C@@H](c1ccccc1)C(c1ccccc1)=NN2c1ccccc1 | 8.5 | 11.3 | 55.2 | Kb [4]: 7.09 10^6/M; Activity [5]: 13%; Activity [6]: Active; Activity [7]: 31%; Activity [8]: Active; Activity [9]: inactive; Activity [10]: Active; Activity [11]: Active; Activity [12]: inactive; Activity [13]: Active; Activity [14]: inactive; Activity [15]: inactive; Activity [16]: Active; Activity [17]: inactive; Activity [18]: Active |
| CC(C)(C)C1=NN(c2ccccc2)[C@]2(C(=O)Nc3ccc(Br)cc32)[C@H]1c1ccccc1 | 12.1 | 14.6 | 15.7 |  |
| COc1cccc2c1C(=O)c1c(O)c3c(c(O)c1C2=O)C[C@@](O)(C(=O)CO)C[C@@H]3O[C@H]1C[C@H](N)[C@H](O)[C@H](C)O1 [DOXORUBICIN] | 0.6 |  |  |  |

Further compounds by falling IC50 [2], results first:

| IC50 [2] [µM] | IC50 [3] [µM] | Structure (SMILES) | IC50 [1] [µM] | further results |
| --- | --- | --- | --- | --- |
| 11.7 | 16.3 | CC(C)(C)C1=NN(c2ccccc2)[C@]2(C(=O)Nc3cc(Cl)c(F)cc32)[C@H]1c1cccc(Cl)c1F | 17.3 |  |
| 11.4 | 14.7 | CC(C)(C)C1=NN(c2ccccc2)[C@]2(C(=O)Nc3cc(Cl)c(F)cc32)[C@H]1c1cccc(Cl)c1 | 14.9 |  |
| 9.9 | 15 | CC(C)(C)C1=NN(c2ccc(Cl)cc2)[C@]2(C(=O)Nc3cc(Cl)c(F)cc32)[C@H]1c1cccc(Cl)c1F | 12.9 |  |
